Laboratory results from US9566312B2, “Cyclic peptides and use as medicines” (priority 2012, dated 2017).
Where two headings read alike, the source gives them in different places. Starred links: 1 amine or outer side, 2 acyl side, 3 side chain; linkers in the order of their positions; H or OH if unused. Non-standard residues stand in square brackets, D forms with d. Residues, ends and D or L forms follow the SMILES beside them. X12 = C[C@@H](CN1CCN(C2CCC2)CC1)[C@@H](C(=O)[*:2])N(C)[*:1]; X6 = C[C@@H](CN1CCN(C2COC2)CC1)[C@@H](C(=O)[*:2])N(C)[*:1]; X18 = C[C@H](CCC(C)(C)O)[C@@H](C(=O)[*:2])N(C)[*:1]; MeBmt = C/C=C/C[C@@H](C)[C@@H](O)[C@H](NC)C(=O)O; X24 = C[C@H](CO)[C@@H](C(=O)[*:2])N(C)[*:1]; X15 = COCC(COC)[C@@H](C(=O)[*:2])N(C)[*:1]; NMeL = CN[C@@H](CC(C)C)C(=O)O; NMeV = CN[C@H](C(=O)O)C(C)C; dNMeA = CN[C@H](C)C(=O)O; Abu = CC[C@H](N)C(=O)O

Legend:
[1] = molecular target: CypF (Homo sapiens (Human), UniProt P30405); test: Inhibitor binding to cyclophilin proteins by SPR, CypF; conditions: 1:1 binding model
CypF, sequence (P30405 30-207): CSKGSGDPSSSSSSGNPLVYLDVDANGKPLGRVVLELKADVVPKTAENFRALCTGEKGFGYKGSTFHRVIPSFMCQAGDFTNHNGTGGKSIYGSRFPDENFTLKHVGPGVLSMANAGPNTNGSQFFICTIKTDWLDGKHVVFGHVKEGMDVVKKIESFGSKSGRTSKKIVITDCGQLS
In short: (§1)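 SPR, single-cycle kinetics. Avi-tagged, mono-biotinylated protein on Biotin CAPture chip; running buffer 10 mM HEPES pH 7.4, 150 mM NaCl, 0.05% P20, 3% DMSO. 1 min contacts at 50 μL/min, 10 min dissociation. kon/koff/KD from 1:1 fit.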

[2] = tested on: peripheral blood mononuclear cells (PBMC); test: Anti-proliferative or immunosuppressive activity, BrdU incorporation in PHA-stimulated PBMC; assay type: cell-based; conditions: PHA 3 μg/ml, 60 hour compound treatment; read-out: EMV PBMC IC50
In short: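 BrdU ELISA read-out of DNA synthesis in freshly isolated PBMCs (two donors, 30,000 cells/well, X-VIVO 15). T-cell proliferation triggered with phytohemagglutinin at 3 μg/ml.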

[3] = molecular target: cyclophilin B (CypB) (Homo sapiens (Human), UniProt P23284); test: Inhibitor binding to cyclophilin proteins by SPR, CypB; parameters: unit not given here; conditions: 1:1 binding model
cyclophilin B (CypB), sequence (P23284 34-216): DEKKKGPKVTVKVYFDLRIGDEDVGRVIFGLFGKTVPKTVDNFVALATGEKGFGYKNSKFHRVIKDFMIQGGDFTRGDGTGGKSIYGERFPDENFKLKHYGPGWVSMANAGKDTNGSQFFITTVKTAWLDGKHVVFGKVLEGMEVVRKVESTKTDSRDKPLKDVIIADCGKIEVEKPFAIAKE
In short: as §1

[4] = tested on: genotype 1b subgenomic HCV replicon in Huh7.5 cells; assay type: cell-based, hepatitis C virus; conditions: read-out: RPLN-1b IC50
In short: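 Replicon inhibition read as renilla luciferase signal versus DMSO controls after 72 h incubation, in Huh7.5 cells harbouring a genotype 1b subgenomic replicon; medium phenol red-free DMEM lacking G418. CC50 determined in parallel via Cell Titer-Glo.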

[5] = molecular target: CYP3A4 (Homo sapiens (Human), UniProt P08684); test: Time-dependent inhibition of CYP3A4;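 note: Two-step in vitro assay, kobs derived from residual CYP3A4 activity versus preincubation time per concentration, then kinact and KI by nonlinear fit of kobs against concentration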
CYP3A4, sequence (P08684 whole entry): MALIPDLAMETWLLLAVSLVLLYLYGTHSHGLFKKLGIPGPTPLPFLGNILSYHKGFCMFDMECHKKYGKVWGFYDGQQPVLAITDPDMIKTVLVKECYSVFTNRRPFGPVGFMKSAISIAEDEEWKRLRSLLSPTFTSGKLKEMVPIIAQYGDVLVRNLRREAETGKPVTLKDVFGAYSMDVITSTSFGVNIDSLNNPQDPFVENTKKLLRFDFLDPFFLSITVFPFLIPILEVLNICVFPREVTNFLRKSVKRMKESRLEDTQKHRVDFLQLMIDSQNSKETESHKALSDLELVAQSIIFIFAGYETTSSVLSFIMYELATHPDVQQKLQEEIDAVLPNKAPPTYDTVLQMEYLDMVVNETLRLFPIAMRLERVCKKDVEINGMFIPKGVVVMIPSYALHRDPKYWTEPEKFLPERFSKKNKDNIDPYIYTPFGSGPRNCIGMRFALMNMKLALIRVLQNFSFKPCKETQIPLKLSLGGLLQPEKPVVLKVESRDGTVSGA
Method: Method 5: Measuring Time-Dependent Inhibition of CYP3A4
The CYP3A4 time dependent inhibition potential of various inhibitors was determined by a two step in vitro assay. […] The inactivation rate constant (kobs) was obtained by plotting the activity remaining over pre-incubation time for each concentration of compound. The maximal inactivation rate (kinact) and the inactivation potency (KI) were calculated by non linear regression analysis of the inactivation rate constant (kobs) versus compound concentrations [I] curve according to the equation kobs=[kinact·[I]]/[KI+[I]]

[6] = molecular target: cyclophilin A (CypA) (Homo sapiens (Human), UniProt P62937); test: Inhibitor binding to cyclophilin proteins by SPR, CypA; parameters: unit not given here; conditions: 1:1 binding model;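 note: Single-cycle kinetics on a Biacore T200, compound injected at several concentrations for 1 min each at 50 µL/min, then 10 min dissociation, in HEPES pH 7.4 buffer with 3% DMSO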
cyclophilin A (CypA), sequence (P62937 whole entry): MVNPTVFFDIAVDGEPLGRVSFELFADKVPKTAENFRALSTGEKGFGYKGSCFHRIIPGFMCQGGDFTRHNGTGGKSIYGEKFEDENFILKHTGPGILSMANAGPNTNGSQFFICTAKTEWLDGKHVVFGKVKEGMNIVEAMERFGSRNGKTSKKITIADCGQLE

[7] = molecular target: organic anion transporting polypeptide 1B1 (OATP1B1) (Homo sapiens (Human), UniProt Q9Y6L6); test: OATP assay in CHO-OATP1B1 cells;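 note: inhibition of probe substrate uptake into the cells, ten minutes exposure, accumulated substrate read by fluorescence once cells were lysed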
organic anion transporting polypeptide 1B1 (OATP1B1), sequence (Q9Y6L6 whole entry): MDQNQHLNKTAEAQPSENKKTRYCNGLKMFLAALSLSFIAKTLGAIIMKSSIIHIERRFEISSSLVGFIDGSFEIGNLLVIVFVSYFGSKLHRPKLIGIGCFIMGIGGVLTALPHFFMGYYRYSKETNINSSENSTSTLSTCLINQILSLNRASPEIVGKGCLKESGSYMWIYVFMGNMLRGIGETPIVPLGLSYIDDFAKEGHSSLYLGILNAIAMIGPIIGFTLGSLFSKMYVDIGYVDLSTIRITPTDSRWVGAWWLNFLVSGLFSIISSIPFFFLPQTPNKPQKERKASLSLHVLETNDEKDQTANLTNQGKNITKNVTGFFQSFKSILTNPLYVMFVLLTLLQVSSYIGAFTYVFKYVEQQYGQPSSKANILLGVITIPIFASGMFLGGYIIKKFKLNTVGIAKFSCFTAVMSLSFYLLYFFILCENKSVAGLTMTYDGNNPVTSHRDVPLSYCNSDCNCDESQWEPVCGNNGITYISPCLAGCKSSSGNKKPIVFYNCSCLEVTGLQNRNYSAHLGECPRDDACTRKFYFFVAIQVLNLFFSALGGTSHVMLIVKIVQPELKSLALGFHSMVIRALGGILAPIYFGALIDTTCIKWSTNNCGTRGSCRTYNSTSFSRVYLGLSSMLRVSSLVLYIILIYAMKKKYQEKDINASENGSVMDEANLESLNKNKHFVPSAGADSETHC

[8] = genotype 1b replicon, 72 h incubation

Row | Compound | CypF Kd [1] | IC50 [2] | CypB Kd [3] | IC50 [4, 8] | Ki [5] | CypA Kd [6] | IC50 [7] | IC50 [4] | NIM TDI, result in words ([5]; probe substrate midazolam)
1 | C/C=C/C[C@@H](C)[C@@H](O)[C@H]1C(=O)N[C@@H](CC)C(=O)N(C)[C@H](C)C(=O)N(C)[C@@H](C(COC)COC)C(=O)N[C@@H](C(C)C)C(=O)N(C)[C@@H](CC(C)C)C(=O)N[C@@H](C)C(=O)N[C@H](C)C(=O)N(C)[C@@H](CC(C)C)C(=O)N(C)[C@@H](CC(C)C)C(=O)N(C)[C@@H](C(C)C)C(=O)N1C [Compound 2.11, 3-[D-Ala]-4-[(S)-4-methoxy-3-(methoxymethyl)-2-(methylamino)butanoyl]-cyclosporin] (cyclo(A[dA][NMeL][NMeL][NMeV][MeBmt][Abu][dNMeA][X15]V[NMeL])) | 1.2 nM | 7900 nM | 1.3 | 58 nM | > 50000 nM | 1.9 | 2600 nM | – | –
2 | C/C=C/C[C@@H](C)[C@@H](O)[C@H]1C(=O)N[C@@H](CC)C(=O)N(C)[C@H](C)C(=O)N(C)[C@@H]([C@H](C)CO[C@H]2CCOC2)C(=O)N[C@@H](C(C)C)C(=O)N(C)[C@@H](CC(C)C)C(=O)N[C@@H](C)C(=O)N[C@H](C)C(=O)N(C)[C@@H](CC(C)C)C(=O)N(C)[C@@H](CC(C)C)C(=O)N(C)[C@@H](C(C)C)C(=O)N1C (stereo in doubt) [Compound 2.16] | 0.4 nM | 13700 nM | 0.5 | – | > 50000 nM | 1.0 | 1900 nM | 25 nM | –
3 | C/C=C/C[C@@H](C)[C@@H](O)[C@H]1C(=O)N[C@@H](CC)C(=O)N(C)[C@H](C)C(=O)N(C)[C@@H]([C@@H](C)CN2CCN(C3CCC3)CC2)C(=O)N[C@@H](C(C)C)C(=O)N(C)[C@@H](CC(C)C)C(=O)N[C@@H](C)C(=O)N[C@H](C)C(=O)N(C)[C@@H](CC(C)C)C(=O)N(C)[C@@H](CC(C)C)C(=O)N(C)[C@@H](C(C)C)C(=O)N1C [Compound 2.17.3, 3-[D-Ala]-4[(2S,3S)-2-Amino-4-(4-cyclobutyl-piperazin-1-yl)-3-methyl-butanoyl]-cyclosporin] (cyclo(A[dA][NMeL][NMeL][NMeV][MeBmt][Abu][dNMeA][X12]V[NMeL])) | 0.3 nM | 6700 nM | 0.4 | 31 nM | > 50000 nM | 0.5 | 4000 nM | – | –
4 | C/C=C/C[C@@H](C)[C@@H](O)[C@H]1C(=O)N[C@@H](CC)C(=O)N(C)[C@H](C)C(=O)N(C)[C@@H]([C@H](C)CO)C(=O)N[C@@H](C(C)C)C(=O)N(C)[C@@H](CC(C)C)C(=O)N[C@@H](C)C(=O)N[C@H](C)C(=O)N(C)[C@@H](CC(C)C)C(=O)N(C)[C@@H](CC(C)C)C(=O)N(C)[C@@H](C(C)C)C(=O)N1C [Compound 2.5.1, 3-[D-Ala]-4-[(2S,3S)-4-hydroxy-3-methyl-2-(methylamino)butanoyl]-cyclosporin] (cyclo(A[dA][NMeL][NMeL][NMeV][MeBmt][Abu][dNMeA][X24]V[NMeL])) | 2.2 nM | 6800 nM | 3.5 | 400 nM | – | 4.8 | 3600 nM | – | No TDI
5 | C/C=C/C[C@@H](C)[C@@H](O)[C@H]1C(=O)N[C@@H](CC)C(=O)N(C)[C@H](C)C(=O)N(C)[C@@H]([C@H](C)CCC(C)(C)O)C(=O)N[C@@H](C(C)C)C(=O)N(C)[C@@H](CC(C)C)C(=O)N[C@@H](C)C(=O)N[C@H](C)C(=O)N(C)[C@@H](CC(C)C)C(=O)N(C)[C@@H](CC(C)C)C(=O)N(C)[C@@H](C(C)C)C(=O)N1C [Compound 2.12, 3-[D-Ala]-4-[(2S,3R)-6-hydroxy-3,6-dimethyl-2-(methylamino)heptanoyl]-cyclosporin] (cyclo(A[dA][NMeL][NMeL][NMeV][MeBmt][Abu][dNMeA][X18]V[NMeL])) | 1.1 nM | 7100 nM | 1.1 | – | > 50000 nM | 2.1 | 2200 nM | 80 nM | –
6 | C/C=C/C[C@@H](C)[C@@H](O)[C@H]1C(=O)N[C@@H](CC)C(=O)N(C)[C@H](C)C(=O)N(C)[C@@H]([C@@H](C)CN2CCN(C3COC3)CC2)C(=O)N[C@@H](C(C)C)C(=O)N(C)[C@@H](CC(C)C)C(=O)N[C@@H](C)C(=O)N[C@H](C)C(=O)N(C)[C@@H](CC(C)C)C(=O)N(C)[C@@H](CC(C)C)C(=O)N(C)[C@@H](C(C)C)C(=O)N1C [Compound 2.17.5, 3-[D-Ala]-4[(2S,3S)-2-Amino-3-methyl-4-(4-oxetan-3-yl-piperazin-1-yl)-butanoyl]-cyclosporin] (cyclo(A[dA][NMeL][NMeL][NMeV][MeBmt][Abu][dNMeA][X6]V[NMeL])) | 0.4 nM | 35200 nM | 0.5 | 33 nM | > 50000 nM | 0.7 | 1800 nM | – | –
